From patent publication US20120204273A1, “COMPOSITIONS RELATING TO A PHOSPHOPROTEIN AND METHODS OF USE” (SANFORD-BURNHAM MEDICAL RESEARCH INSTITUTE, priority 2010, published 2012)

Tested on: 3T3-L1 adipocytes
Test: GSV-PM fusion in live adipocytes (IRAP-pHluorin, TIRF microscopy)
Format: cell-based, mouse
Description: FIG. 3, panels A-C, show knockdown of CDP138 in live 3T3-L1 adipocytes inhibits insulin-stimulated membrane fusion between GLUT4 storage vesicles (GSV) and the PM, but not GLUT4-EGFP trafficking to the TIRF zone. (A): Schematic illustration of the molecular probes and TIRF microcopy-based live cell assays for GLUT4 trafficking and GSV-PM fusion. (B) and (C): The effect of CDP138 knockdown on insulin-stimulated IRAP-pHluorin insertion into the PM (B), and accumulation of GLUT4-EGFP in the TIRF zone (C). Adipocytes (day 4) were transfected by electroporation with plasmid DNA encoding IRAP-pHluorin or GLUT4-EGFP, together with either the scrambled siRNA or smartPool siRNA against mouse 5730419I09Rik. Cells were reseeded on glass-bottomed dishes for 72 hrs, serum starved for 2 hr then stimulated with 100 nM insulin for 30 min. Analyses were performed in a cell warmer adapted for a Nikon TiE with fully motorized combined dual laser (488 and 561 nm). Images were acquired every 3 min immediately after addition of insulin and analyzed as described in the Supplementary Experimental Procedures. Perfect focus system and multiple points capture program (NIS Element) were used to acquire images from multiple positively transfected cells at each time point. […]
Total Internal Reflection Fluorescence (TIRF) Microscopy: Nikon (Melville, N.Y.) TI-TIRF-E, which was based on the objective lens method, was used to perform all the TIRF experiments. […] Positively transfected adipocytes were identified, and the insulin-stimulated IRAP vesicle-PM fusion events or GLUT4-EGFP trafficking to the TIRF zone were recorded every 3 min for a 30 min period using Nikon Eclipse-Ti TIRF microscope. […]
Image Analysis and Quantification: TIRF and wide field fluorescence microscopy were performed using a Nikon inverted microscope (Melville, N.Y.) with a cooled charge-coupled device camera. […]

insulin
stimulation of GSV fusion with the PM in the TIRF zone: significantly stimulates
